Data from patent publication US20250360167A1 (Keryx Biopharmaceuticals, Inc., priority 2013, published 2025).

Experiments:
[1] = test system: serum calcium; experiment: Phase 3 trial (Example 1): serum calcium; assay type: in vivo, human
Description: Serum phosphorus and calcium were performed at Screening (Visit 0); weekly during the Washout Period after Visit 1 (Week −2); at Visit 4 (Randomization Visit); at Visits 5 (Week 1), 6 (Week 2), 7 (Week 4), 8 (Week 6), 9 (Week 8), 10 (Week 10), 11 (Week 12), 12 (Week 16), 13 (Week 20), 14 (Week 24), 15 (Week 28), 16 (Week 32), 17 (Week 36), 18 (Week 40), 19 (Week 44), 20 (Week 48), and 21 (Week 52) of the 52-week Safety Assessment Period; and at Visits 22 (Week 53), 23 (Week 54), 24 (Week 55) and 25 (Week 56) of the Efficacy Assessment Period.
These variables will be analyzed using LOCF methodology. ANCOVA will be employed. The model will include treatment (fixed effect), and Visit-4 baseline (covariate). An analysis using MMRM method will be conducted as a sensitivity analysis. The least square mean estimates of the treatment effects as well as the 2-sided 95% confidence intervals (CI) of the treatment effects will be derived.
(§1) • 1. Change in serum calcium concentration at Weeks 12, 24, 36, 48, and 52 as compared to baseline (Visit 4). This variable will be analyzed using LOCF methodology. ANCOVA will be employed. The model will include treatment (fixed effect), and baseline (covariate). • 2. Change in ferritin, and TSAT at Weeks 12, 24, 36 and 48 as compared to baseline (Visit 4). This variable will be analyzed using LOCF methodology. ANCOVA will be employed. The model will include treatment (fixed effect), and baseline (covariate). • 3. Change in serum iron and TIBC at Weeks 12, 24, 36, 48, and 52 as compared to baseline (Visit 4). This variable will be analyzed using LOCF methodology. ANCOVA will be employed. The model will include treatment (fixed effect), and baseline (covariate). • 4. Change in Ca x P product at Weeks 12, 24, 36, 48, and 52 as compared to baseline (Visit 4). This variable will be analyzed using LOCF methodology. ANCOVA will be employed. The model will include treatment (fixed effect), and baseline (covariate). • 5. Change in iPTH at Weeks 12, 36, 52, and 56 as compared to baseline (Visit 4). This variable will be analyzed using LOCF methodology. ANCOVA will be employed. The model will include treatment (fixed effect), and baseline (covariate). • 6. Change in serum […], vitamin A, vitamin B-12, vitamin E, vitamin K and folic acid at Weeks 12, 36, and 52 as compared to baseline (Visit 4). This variable will be analyzed using LOCF methodology. ANCOVA will be employed. The model will include treatment (fixed effect), and baseline (covariate). • 7. Change in serum bicarbonate concentration at Weeks 12, 36, and 52 as compared to baseline (Visit 4). This variable will be analyzed using LOCF methodology. ANCOVA will be employed. The model will include treatment (fixed effect), and baseline (covariate). • 8. Change in IV iron intake at Weeks 12, 24, 36, 48, and 52 as compared to baseline (Visit 4). This variable will be analyzed using LOCF methodology. ANCOVA will be employed. The model will include treatment (fixed effect), and baseline (covariate). • 9. Change in the use of EPO (ESA) administered at Weeks 12, 24, 36, 48, and 52 as compared to baseline (Visit 4). This variable will be analyzed using LOCF methodology. ANCOVA will be employed. The model will include treatment (fixed effect), and baseline (covariate). • 10. Change in the use of Vitamin D supplementation (and its analogs) and Sensipar (cinacalcet) at Weeks 12, 24, 36, 48, and 52 as compared to baseline (Visit 4). This variable will be analyzed using LOCF methodology. ANCOVA will be employed. The model will include treatment (fixed effect), and baseline (covariate). • 11. Change in LDL, HDL, and triglycerides at Weeks 12, 36, and 52 as compared to baseline (Visit 4). This variable will be analyzed using LOCF methodology. ANCOVA will be employed. The model will include treatment (fixed effect), and baseline (covariate).

[2] = test system: transferrin saturation (TSAT); experiment: Phase 3 trial (Example 1): TSAT; assay type: in vivo, human; parameters: TSAT, Mean / TSAT, Median / TSAT, Change from Baseline, Mean / TSAT, Change from Baseline, Median / TSAT, LS Mean / TSAT, Treatment Differences, LS Mean (KRX-0502) − LS Mean (control): unit not given here; settings: for TSAT, Mean / TSAT, Median / TSAT, LS Mean / TSAT, Change from Baseline, Mean / TSAT, Change from Baseline, Median / TSAT, Treatment Differences, LS Mean (KRX-0502) − LS Mean (control): Table 16
Text: Iron studies including serum iron, ferritin, TSAT, and total iron-binding capacity were done at Screening (Visit 0); at the Randomization Visit (Visit 4); at Visits 7 (Week 4), 9 (Week 8), 11 (Week 12), 12 (Week 16), 13 (Week 20), 14 (Week 24), 15 (Week 28), 16 (Week 32), 17 (Week 36), 18 (Week 40), 19 (Week 44), 20 (Week 48), and 21 (Week 52) of the 52-week Safety Assessment Period; and at Visit 25 (Week 56) of the Efficacy Assessment Period.
Change from baseline in TSAT at Week 52 as compared to baseline (Visit 4). This variable will be analyzed using LOCF methodology. ANCOVA will be employed. The model will include treatment (fixed effect), and baseline (covariate). A sensitivity analysis will be performed using MMRM method.
as §1

[3] = Day 0 Baseline, Safety Assessment Period

iron (+3), x (1, 2, 3-propanetricarboxylic acid, 2-hydroxy-), y (H2O) [KRX-0502]
Calcium, Mean ([1]; Baseline, Table 12): 8.843 mg/dL
Calcium, Median ([1]; Baseline, Table 12): 8.900 mg/dL
Calcium, Week 12 Change from Baseline, Mean ([1]; Table 12): 0.245 mg/dL
Calcium, Week 12 Change from Baseline, Median ([1]; Table 12): 0.200 mg/dL
Calcium, LS Mean ([1]; Week 12, ANCOVA, Table 12): 9.11 mg/dL
Calcium, Mean ([1]; Week 12, Table 12): 9.089 mg/dL
Calcium, Median ([1]; Week 12, Table 12): 9.100 mg/dL
Calcium, Treatment Differences, LS Mean (KRX-0502) − LS Mean (Control) ([1]; Week 12, control = sevelamer carbonate as a single agent): -0.04 mg/dL
Mean TSAT, LS Mean Difference from Active Control Group at Week 52 ([2]; ANCOVA, Table D): 10%
Mean TSAT ([2]; Baseline (Day 0), Table D): 31%
TSAT, Mean [2, 3]: 31.0
TSAT, Median [2, 3]: 29.5
TSAT, LS Mean ([2]; Week 12, ANCOVA): 40.17
Mean TSAT ([2]; Week 12, LOCF, Table D): 40%
TSAT, Change from Baseline, Mean ([2]; Week 12): 9.2
TSAT, Change from Baseline, Median ([2]; Week 12): 7.0
TSAT, Mean ([2]; Week 12): 40.2
TSAT, Median ([2]; Week 12): 37.0
TSAT, Treatment Differences, LS Mean (KRX-0502) − LS Mean (control) ([2]; Week 12): 8.74
TSAT, LS Mean ([2]; Week 24, ANCOVA): 39.90
Mean TSAT ([2]; Week 24, LOCF, Table D): 40%
TSAT, Change from Baseline, Mean ([2]; Week 24): 8.9
TSAT, Change from Baseline, Median ([2]; Week 24): 7.0
TSAT, Mean ([2]; Week 24): 39.9
TSAT, Median ([2]; Week 24): 38.0
TSAT, Treatment Differences, LS Mean (KRX-0502) − LS Mean (control) ([2]; Week 24): 8.28
TSAT, LS Mean ([2]; Week 36, ANCOVA): 39.80
Mean TSAT ([2]; Week 36, LOCF, Table D): 40%
TSAT, Change from Baseline, Mean ([2]; Week 36): 8.8
TSAT, Change from Baseline, Median ([2]; Week 36): 7.0
TSAT, Mean ([2]; Week 36): 39.8
TSAT, Median ([2]; Week 36): 37.0
TSAT, Treatment Differences, LS Mean (KRX-0502) − LS Mean (control) ([2]; Week 36): 9.44
TSAT, LS Mean ([2]; Week 48, ANCOVA): 40.60
Mean TSAT ([2]; Week 48, LOCF, Table D): 41%
TSAT, Change from Baseline, Mean ([2]; Week 48): 9.6
TSAT, Change from Baseline, Median ([2]; Week 48): 7.0
TSAT, Mean ([2]; Week 48): 40.6
TSAT, Median ([2]; Week 48): 38.0
TSAT, Treatment Differences, LS Mean (KRX-0502) − LS Mean (control) ([2]; Week 48): 11.17
TSAT, LS Mean ([2]; Week 52, ANCOVA): 39.35
Mean TSAT ([2]; Week 52, LOCF, Table D): 39%
TSAT, Change from Baseline, Mean ([2]; Week 52): 8.3
TSAT, Change from Baseline, Median ([2]; Week 52): 6.0
TSAT, Mean ([2]; Week 52): 39.4
TSAT, Median ([2]; Week 52): 35.0
TSAT, Treatment Differences, LS Mean (KRX-0502) − LS Mean (control) ([2]; Week 52): 9.66
Mean TSAT, % Change from Baseline ([2]; Week 52, relative change, Table D): 25.8%
Mean TSAT, Change from Baseline at Week 52 ([2]; absolute TSAT points, Table D): 8%
